Consider three molecules from patent US8741962B2, “Process for preparation of Rasagiline and salts thereof” (USV Limited, priority 2009, dated 2014).

Values joined by “and” are separate entries in the source; they are usually repeats but may differ in a detail not shown here. Equal entries are not always repeated. Where two headings read alike, the source gives them in different places.

Series [1] in a line: Particle size determination by dry method (Malvern Mastersizer 2000, Scirocco 2000 dry unit). To be noted: for d10 / d50 / d90: not micronized, as obtained by the process.
Experimental: Rasagiline mesylate is further micronized using conventional micronization techniques. After micronization, the sample is preferably passed through 100 mesh sieve and the particle size is measured using a Malvern Mastersizer 2000 dry unit, Scirocco 2000 which is commercially available from Malvern Instruments Ltd., United Kingdom.
The text on series [2]:
The present inventors have conducted extensive research work for solving the problem of agglomerization of micronized Rasagiline or salt thereof.
This is another data set of the same source.

The conditions of series [3]: wet method.
[4] abbreviates: Pack-1 (Glass bottle), after one month.
[5] abbreviates: Pack-1 (Glass bottle), micronized sample (initial).
[6] abbreviates: Pack-2 (PET bottle), after one month.
[7] abbreviates: Pack-2 (PET bottle), micronized sample (initial).
[8] abbreviates: room temperature, glass bottle or PET bottle, about one month.
Setting [9] is: after micronization, dry method.
Setting [10] is: before micronization, dry method.

Regarding `C#CCN[C@@H]1CCc2ccccc21.Cl` [R-(+)-Rasagiline hydrochloride, (1R)-2,3-dihydro-N-2-propynyl-1H-indane-1-amine hydrochloride], the “size of 90% of the total amount by volume of particles” value (micronized) is “less than 20 microns”. In addition, the “size of 90% particles” value (not micronized) is reported as “less than 500 microns”.

As to `Br.C#CCN[C@@H]1CCc2ccccc21` [R(+)-Rasagiline hydrobromide, (1R)-2,3-dihydro-N-2-propynyl-1H-indane-1-amine hydrobromide], the “size of 90% of the total amount by volume of particles” value in series [1] (micronized, dry method) was “less than 20 microns”. In addition, in series [1], the d10 is given as 2-9 μ, the d50 was 10-20 μ and the d90 is on record as 40-80 μ.

In series [2] (setting [4]), `C#CCN[C@@H]1CCc2ccccc21.CS(=O)(=O)O` [R(+)-Rasagiline mesylate, (1R)-2,3-dihydro-N-2-propynyl-1H-indane-1-amine mesylate] registered a D10 of 1.70, a D50 of 3.66 and a D90 of 7.55. Besides, in series [2] (setting [5]), the D10 amounted to 1.40, the D50 is reported as 3.33 and the D90 was found to be 7.88. In series [2] (setting [6]), this molecule returned a D10 of 1.41, a D50 of 2.97 and a D90 of 5.64. In addition, in series [2] (setting [7]), the D10 worked out at 1.43, the D50 was 2.90 and the D90 is 5.74. Moreover, in series [2] (setting [8]), the “Agglomeration of the particles on storage” value is “no agglomeration of the particles was observed”; the “Change in XRPD pattern and particle size on storage” value was “no change in XRPD pattern and particle size”. Also, the “Particle Size Distribution D90” value in series [3] (after micronization) is 796.35 micron and 1007.18 micron. In series [3] (before micronization), the “Particle Size Distribution D50” value was 141.23 micron and 174.70 micron; the “Particle Size Distribution D90” value is 590.45 micron and 832.14 micron. In series [1] (setting [9]), the “Particle Size Distribution D10” value was 1.44 micron and 1.43 micron; the “Particle Size Distribution D50” value was 3.00 micron and 2.90 micron; the “Particle Size Distribution D90” value was 5.94 micron and 5.74 micron. Also, in series [1] (setting [10]), the “Particle Size Distribution D10” value was 3.65 micron and 3.18 micron; the “Particle Size Distribution D50” value was 15.27 micron and 13.33 micron; the “Particle Size Distribution D90” value is 57.38 micron and 47.11 micron. For the same molecule, in series [1] (micronized), the “particle size of 50% of particles” value was “less than or equal to 4 μ” and the “particle size of 90% of particles” value was “less than or equal to 9 μ”. Further, in series [1], the d10 was 2-9 μ, the d50 is recorded as 10-20 μ and the d90 was 40-80 μ.
